The values below come from US9187784B2, “EphA4 is a disease modifier in motor neuron disease” (VIB VZW, priority 2011, dated 2015).

One data set relates to SOD1G93A rat. Put plainly: KYL peptide intracerebroventricular treatment of SOD1G93A rats (disease onset, survival). It is filed as in vivo. As to the method:
(§1) FIG. 12: Pharmacological inhibition of EphA4 receptor signaling protects against mutant SOD1 pathology in vivo. Effect of treatment with Compound 1 (C1, 500 μM) on the motor axon length of zebrafish embryos (30 hpf). DMSO (1/250 dilution) was used as control (Panel A). ANOVA and Bonferroni's multiple comparison tests were used for statistical analysis: SOD1^A4V/C1 (n=68) vs. SOD1^A4V/DMSO (n=76, p=3.54×10^−5). Effect of KYL-peptide (3 mM) treatment of 60-day-old SOD1^G93A rats on disease onset (Panel B) and survival (Panel C). Artificial CSF (ACSF) was used as control. Average disease onset: 133 days (treated, n=21) versus 125 days (control, n=17, T-test p=0.044). Average survival: 148 days (treated, n=21) versus 139 days (controls, n=17, T-test p=0.041). Error bars are s.e.m.
EphA4−/− mice were mated with SOD1G93A mice for at least six generations. All experiments were littermate and gender controlled. […] The EphA4 blocking peptide ([…] (SEQ ID NO:1)-95% purity; Eurogentec) was a 3 mM solution in artificial cerebrospinal fluid and infused into the left lateral ventricle of 60-day-old female rats, using mini-osmotic pumps (28 days, 0.25 μl/h, Model 2004, Alzet) as previously described.^46 Disease onset, progression and survival of SOD1G93A rats were analyzed by weight and rotarod performance (five times for three minutes at 15 rpm) three times a week. […]

For the next data set, the target named is EphA4 (Homo sapiens, UniProt P54764). As to conditions: WO2004/028551; cited from earlier work.
Data set [1] deals with mutant SOD1-overexpressing fish. Put plainly: mutant SOD1-induced motor axonopathy in zebrafish embryos (percentage affected embryos, motor axon length). It is filed as in vivo. The following applies: for % affected embryos: Table 3, SOD1A4V embryos.
From the text: FIG. 1: EphA4 knockdown rescues mutant SOD1-induced motor axonopathy. […] Abnormal branching is indicated with arrowhead. Y-axes show motor axon length of zebrafish embryos expressing wild-type SOD1 (black bar, Panels D-G) or mutant SOD1 (white bar, Panels D-G). Knockdown of RTK2 in SOD1A4V- (Panel D), SOD1G93A- (Panel E) and SOD1G37R- (Panel F) expressing fish was established by co-injection of increasing amounts of atg-RTK2 morpholino (shaded bars). RTK1 expression was inhibited in SOD1A4V-expressing fish by co-injection of atg-RTK1 morpholino (shaded bars, Panel G). Ctr-RTK2 and ctr-RTK1 were used as control. ANOVA and Bonferroni's multiple comparison tests were used for statistical analysis. Comparing axonal length in SOD1A4V fish injected with ctr-RTK2 (n=39) vs. different doses atg-RTK2: 3 ng (n=43, p=0.0059), 4.5 ng (n=37, p=0.0016, Panel D), SOD1G93A: ctr-RTK2 (n=60) vs. atg-RTK2: 1.5 ng (n=55, p=0.015), 3 ng (n=51, p=2.82×10-9), 4.5 ng (n=46, p=2.22×10-15, Panel E), SOD1G37R: ctr-RTK2 (n=37) vs. atg-RTK2: 3 ng (n=25, p=0.027), 4.5 ng (n=36, p=0.0018, Panel F) and SOD1A4V: ctr-RTK1 (n=49) vs. atg-RTK1: 1.5 ng (n=51, p=2.51×10-7), 3 ng (n=64, p=7.99×10-10), 4.5 ng (n=54, p<1×10-20, Panel G). Western blot of SOD1WT or SOD1A4V (1.76 ng) expressing zebrafish embryos (30 hpf), co-injected with either ctr-RTK1 or atg-RTK1 (4.5 ng). Sixty embryos were used per group with actin as the loading control (H). Immunostaining of rtk1 (green) in rhombomeres 3 and 5 and of ephrin-b2 (magenta) in rhombomere 4 in zebrafish embryos injected with either ctr-RTK1 or atg-RTK1 (4.5 ng). RTK1-depleted embryos show disorganized rhombomere boundaries (arrowhead, I, Scale bar 50 μm). Error bars are s.e.m.
FIG. 2: RTK2 knockdown protects motor axons against SOD1^A4V-induced injury. Effect of RTK2 knockdown, established by injection of splice-rtk2 morpholino, on the motor axon length of SOD1^A4V-expressing zebrafish embryos (30 hpf). SOD1^WT-expressing fish and a non-functional five-base pair-mismatch control morpholino (ctr-RTK2) were used as control (Panel A). ANOVA and Bonferroni's multiple comparison tests were used for statistical analysis: SOD1^A4V/ctr-RTK2 (n=56) vs. SOD1^A4V/spl-RTK2 (n=60, 1.79×10^−4). Spl-RTK2 was designed against the exon 2 splice site of the zebrafish RTK2 pre-mRNA and alternatively skipped out exon 2. RT-PCR on non-transgenic fish (lane 1), ctr-RTK2-injected fish (lane 2) and spl-RTK2-injected fish (lane 3) at 30 hpf. Functional RTK2 mRNA, containing exon 2, is indicated by the 818-bp product (upper band) while non-functional RTK2 mRNA, lacking exon 2 is indicated by the 156-bp product (lower band), 60 embryos each group (Panel B). Error bars are s.e.m.
as §1
Effect of RTK2 knockdown (established by injection of atg-RTK2 morpholino) on the percentage of affected wild-type SOD1 or mutant SOD1 (A4V, G93A, G37R) zebrafish embryos (30 hpf). Ctr-RTK2 morpholino was used as control. An embryo was considered as affected when it had more than 10% abnormally branched motor axons. Significance of mtSOD1/ctr-RTK2 (4.5 ng) vs. mtSOD1/atg-RTK2 (4.5 ng) was determined by Mann-Whitney test, * p=0.0075, ° p=0.039 and # p=0.0052. […]

In a further data set the test system is TDP43A315T embryos. Put plainly: mutant TDP-43-induced motor axonopathy in zebrafish embryos. It is filed as in vivo. As to conditions: zebrafish embryos. As to the method: FIG. 14: Inhibiting EphA4 signaling rescues motor axonopathies induced by overexpression of mutant TDP-43 and knockdown of Smn. Y-axes show motor axon length of zebrafish embryos (30 hpf) expressing TDP^WT (black bar) or TDP^A315T (white bar) (Panels A, B) or with unaltered (black bar) or reduced expression levels of Smn (white bar) (Panels C, D). Smn knockdown was established by injection of 3 ng (Panel C) or 6 ng (Panel D) atg-smn morpholino. Ctr-smn morpholino was injected as control. RTK1 signaling was inhibited by injection of 3 ng atg-RTK1 morpholino (shaded bars) (Panels A, C) or by treatment with C1 (500 μM, shaded bars) (Panels B, D). Injection of ctr-RTK1 morpholino and application of a 1/250 dilution of DMSO were used as control. ANOVA and Bonferroni's multiple comparison tests were used for statistical analysis: TDP^A315T/atg-RTK1 (n=24) vs. TDP^A315T/ctr-RTK1 (n=34, p=7.86×10^−5, Panel A), TDP^A315T/C1 (n=21) vs. TDP^A315T/DMSO (n=21, p=0.045, Panel B), atg-smn/atg-RTK1 (n=35) vs. atg-smn/ctr-RTK1 (n=35, p=4.93×10^−8, Panel C), atg-smn/C1 (n=91) vs. atg-smn/DMSO (n=105, p=1.27×10^−6, Panel D). Error bars are s.e.m.
Mann-Whitney test was used to determine significance between TDPA315T/ctr-RTK1 (4.5 ng) vs. TDPA315T/atg-RTK1 (4.5 ng, * p=0.001) and between TDPA315T/control vs. TDPA315T/C1 (° p=0.029). Control=1/250 DMSO and C1=500 μM.
(§2) A morpholino database of translation-blocking morpholinos (atg-mo) was used to perform a morpholino-based knockdown screening in a zebrafish model for ALS.^13 The standard control morpholino (5′-[…]-′3) (SEQ ID NO:4), provided by Gene tools, was used as control. Three nanograms of morpholino were co-injected with […] of SOD1 mRNA and the effect of gene knockdown on the mutant SOD1-induced axonopathy analyzed. Each morpholino was tested in two separate experiments. Only morphologically normal embryos were included for further analysis. Overexpression of SOD1 or TDP-43, applied to validate the protective morpholino, was established by injection of 1.76 ng SOD1 mRNA or 1.43 ng TDP-43 mRNA, respectively. Antisense morpholinos to knockdown zebrafish RTK1, RTK2, Smn and their five base pair-mismatch control morpholinos were developed by Gene tools: atg-RTK1 (5′-[…]-′3) (SEQ ID NO:5), atg-RTK2 (5′-[…]-[…]-′3) (SEQ ID NO:6), splice-RTK2 (5′-[…]-[…]-′3) (SEQ ID NO:7) and atg-smn (5′-[…]-3′) (SEQ ID NO:8). Compound 1 (2,5-dimethylpyrrolyl benzoic acid, Matrix Scientific) dissolved in DMSO was added to the water of 6-hpf-old zebrafish embryos.

A further data set has as its system zebrafish embryos. In words: morpholino-based smn knockdown: abnormally branched and truncated motor axons in zebrafish embryos. Type of data set: in vivo. The following applies: for truncation affected (%): affected = more than 5% truncated motor axons; for branching affected (%): affected = more than 10% abnormally branched motor axons. As to the method: FIG. 15: Smn knockdown reduces the motor axon length in zebrafish embryos. […] The non-functional five-base pair-mismatch control morpholino (ctr-smn) was used as control. ANOVA and Bonferroni's multiple comparison tests were used for statistical analysis: ctr-smn (6 ng, n=42) vs. 3 ng atg-smn (n=28, p=8.99×10^−3), 4.5 ng atg-smn (n=30, 3.37×10^−7), 6 ng atg-smn (n=41, p<1×10-20). Error bars are s.e.m.
Effect of smn knockdown, induced by injection of increasing amounts of atg-smn morpholino, on the percentage affected embryos. An embryo was considered as affected when it had more than 10% abnormally branched or more than 5% truncated motor axons. Significance of ctr-smn (6 ng) vs. atg-smn (6 ng) was determined by Mann-Whitney test, *p=3×10-4, ° p=1.3×10-4.
as §2

Marks after values point to notes of the source that are not given here.

Sequence of EphA4 (P54764 20-986, species assumed): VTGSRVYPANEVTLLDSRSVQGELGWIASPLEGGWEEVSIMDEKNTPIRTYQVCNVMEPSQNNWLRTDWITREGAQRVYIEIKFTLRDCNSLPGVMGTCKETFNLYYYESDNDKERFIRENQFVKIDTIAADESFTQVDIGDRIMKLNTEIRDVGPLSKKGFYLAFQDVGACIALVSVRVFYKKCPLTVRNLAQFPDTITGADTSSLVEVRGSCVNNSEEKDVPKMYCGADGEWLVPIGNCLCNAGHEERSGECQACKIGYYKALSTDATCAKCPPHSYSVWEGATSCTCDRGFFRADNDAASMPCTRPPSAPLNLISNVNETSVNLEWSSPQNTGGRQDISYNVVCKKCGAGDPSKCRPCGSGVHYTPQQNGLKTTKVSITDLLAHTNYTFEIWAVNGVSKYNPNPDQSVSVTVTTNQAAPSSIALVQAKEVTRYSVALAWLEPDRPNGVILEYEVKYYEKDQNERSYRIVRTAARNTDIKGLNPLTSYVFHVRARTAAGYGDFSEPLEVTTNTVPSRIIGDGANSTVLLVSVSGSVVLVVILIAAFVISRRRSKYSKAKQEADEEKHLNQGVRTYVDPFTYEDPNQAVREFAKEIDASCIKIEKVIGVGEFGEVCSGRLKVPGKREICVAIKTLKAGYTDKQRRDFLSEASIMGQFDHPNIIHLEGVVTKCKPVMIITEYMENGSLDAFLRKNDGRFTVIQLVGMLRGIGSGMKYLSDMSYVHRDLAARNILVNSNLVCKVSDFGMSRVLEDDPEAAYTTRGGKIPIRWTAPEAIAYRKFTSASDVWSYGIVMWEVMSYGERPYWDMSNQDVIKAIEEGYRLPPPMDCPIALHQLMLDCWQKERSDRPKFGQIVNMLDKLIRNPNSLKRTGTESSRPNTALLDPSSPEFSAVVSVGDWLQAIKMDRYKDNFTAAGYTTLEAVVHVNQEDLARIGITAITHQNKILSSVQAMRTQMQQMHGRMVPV

“KYLPYWPVLSSL (EphA4 inhibitory peptide) [KYL peptide]” yielded an Average survival with SOD1G93A rat (KYL-peptide 3 mM intracerebroventricular from day 60, controls 139 days) of 148 days. This substance also came in with an Average disease onset in the data set on SOD1G93A rat (KYL-peptide 3 mM intracerebroventricular from day 60, onset by rotarod, control 125 days) of 133 days. In the data set with EphA4, the “binding to EphA4” value was “preferentially bind to EphA4”.
Turning to “5′-CCTCCCACTGA-AAATGGACAGAGGA-′3 (antisense CCTCCCACTGAAAATGGACAGAGGA; all phosphorodiamidate morpholino (PMO)) [spl-RTK2]”, in data set [1] (SOD1A4V zebrafish embryos, 30 hpf), the “effect on mutant SOD1-induced axonopathy” value is “replicating the protective effect of RTK2 knockdown”. Further, the “% affected embryos” value is 40 (30) % in data set [1] (morpholino 0.4 ng), 19 (31) % in data set [1] (morpholino 0.8 ng) and 13* (31) % in data set [1] (morpholino 1.5 ng).
In the case of “2,5-dimethylpyrrolyl benzoic acid [Compound C1]”, the “effect on outgrowth deficit and aberrant branching induced by mutant TDP-43” value in the data set with TDP43A315T embryos was “rescued the outgrowth deficit and aberrant branching induced by mutant TDP-43”.
In the case of “VTMEAINLAFPG (EphA4 inhibitory peptide) [VTM peptide]”, in the data set with EphA4, the “binding to EphA4” value is “preferentially bind to EphA4”.
Take “5′-CGACATCTTCTGCACCATTGGC-3′ (all phosphorodiamidate morpholino (PMO)) [atg-smn]”: the figures for the “truncation affected (%)” value in the data set on zebrafish embryos (morpholino 3 ng), in the data set with zebrafish embryos (morpholino 4.5 ng) and with zebrafish embryos (morpholino 6 ng) were 7%, 11% and 42° %, respectively. The “branching affected (%)” value in the data set with zebrafish embryos (morpholino 3 ng) is reported as 39%; with zebrafish embryos (morpholino 4.5 ng), 46%; with zebrafish embryos (morpholino 6 ng) it was 71* %.
